These results are taken from patent US20260297070A1, “CYCLIC [COMPOUND LEFT OUT] WRN INHIBITORS” (Nimbus Wadjet, Inc., priority 2023, published 2026).

SMILES strings stand for the structures. Some results are limits rather than exact numbers.

This assay deals with T1, human Werner helicase (WRN-BV08, Uniprot Q14191, amino acids 517-1235 with L1074F point mutation) (Homo sapiens, UniProt Q14191, L1074F).
T1 construct: Uniprot Q14191, amino acids 517-1235 with L1074F point mutation; TEV-cleavable 8×His (C, cleaved yes); made in house; host or cells: Sf9 insect cells (baculovirus)
T1 sequence (Q14191 with tags, fused parts or gaps L1074F limits assumed): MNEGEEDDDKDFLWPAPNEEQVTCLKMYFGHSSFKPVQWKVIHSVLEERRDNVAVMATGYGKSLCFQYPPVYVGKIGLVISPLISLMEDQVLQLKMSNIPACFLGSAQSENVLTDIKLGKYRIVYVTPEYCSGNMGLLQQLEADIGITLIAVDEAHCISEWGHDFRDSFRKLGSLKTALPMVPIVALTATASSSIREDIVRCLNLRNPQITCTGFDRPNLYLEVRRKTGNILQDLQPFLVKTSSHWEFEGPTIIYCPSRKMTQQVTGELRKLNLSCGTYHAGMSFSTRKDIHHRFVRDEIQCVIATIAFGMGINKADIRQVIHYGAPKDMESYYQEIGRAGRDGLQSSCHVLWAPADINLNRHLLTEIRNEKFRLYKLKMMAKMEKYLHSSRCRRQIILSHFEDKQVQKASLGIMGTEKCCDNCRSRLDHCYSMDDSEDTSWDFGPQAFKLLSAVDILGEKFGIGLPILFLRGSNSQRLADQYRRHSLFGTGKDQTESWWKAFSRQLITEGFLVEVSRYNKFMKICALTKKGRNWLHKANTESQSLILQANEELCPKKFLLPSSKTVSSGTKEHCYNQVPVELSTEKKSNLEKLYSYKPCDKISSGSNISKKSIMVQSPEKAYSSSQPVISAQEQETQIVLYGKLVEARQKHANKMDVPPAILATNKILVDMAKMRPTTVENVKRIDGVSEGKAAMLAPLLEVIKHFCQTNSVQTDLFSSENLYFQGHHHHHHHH
The assay is described as follows: WRN (BV08) ADP-Glo Assay. It counts as biochemical. The settings on record: 0.15 nM WRN, 5 μM ATP, 0.1 nM DNA duplex, 15 min preincubation, 60 min at 25° C., pH 7.5, 1% DMSO; read-out: ADP-Glo_hWRN_IC50. A digest of the protocol: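 ADP-Glo luminescence read-out of ATP hydrolysis. Conditions: 0.15 nM WRN, 5 μM ATP, 0.1 nM DNA duplex, 1% DMSO, 60 min at 25 °C after 15 min compound preincubation. Max/min controls were DMSO and 20 μM NSC-617145; IC50 from four-parameter fit.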
Background: In ADP-Glo the light output rises with the ADP produced.

As for `O=C(Cc1ccc(-n2cccc2)cc1)N(Cc1ccncc1Cl)C1C=CS(=O)(=O)C1` (stereo not shown) [I-228, N-[(3-chloropyridin-4-yl)methyl]-N-(1,1-dioxo-2,3-dihydro-1lambda6-thiophen-3-yl)-2-[4-(1H-pyrrol-1-yl)phenyl]acetamide], the IC50 fell in the range of 5 to 10 µM. For `O=C(Cc1ccc(-n2cccc2)cc1)N(Cc1nccs1)C1C=CS(=O)(=O)C1` (stereo not shown) [I-276, N-(1,1-dioxo-2,3-dihydro-1lambda6-thiophen-3-yl)-2-[4-(1H-pyrrol-1-yl)phenyl]-N-[(1,3-thiazol-2-yl)methyl]acetamide] the value was 5 to 10 µM.

Take `O=C([C@@H]1[C@H]2C[C@]1(c1cccc(F)c1)CO2)N(Cc1ccncc1)C1C=CS(=O)(=O)C1` (mixture of isomers) [I-715, rac-(1R,4S,5S)-N-(1,1-dioxo-2,3-dihydro-1lambda6-thiophen-3-yl)-4-(3-fluorophenyl)-N-[(pyridin-4-yl)methyl]-2-oxabicyclo[2.1.1]hexane-5-carboxamide]: the IC50 was > 50 µM.

With `COc1cc(CN(C(=O)Cc2ccc(-n3cccc3C)cc2F)C2C=CS(=O)(=O)C2)ccn1` (single isomer, unassigned) [I-329], the IC50 is 10 to 50 µM.

Consider `O=C(Cc1ccc(S(F)(F)(F)(F)F)cc1)N(CCc1nc(C2CC2)cs1)C1C=CS(=O)(=O)C1` (stereo not shown) [I-629, N-[2-(4-cyclopropyl-1,3-thiazol-2-yl)ethyl]-N-(1,1-dioxo-2,3-dihydro-1lambda6-thiophen-3-yl)-2-[4-(pentafluoro-lambda6-sulfanyl)phenyl]acetamide], for which the IC50 was in the range of 0.5 to 5 µM. For the compound `O=C(C(c1ccc(-c2ccc(F)c(F)c2)cc1F)n1cccn1)N(Cc1ccncc1)C1C=CS(=O)(=O)C1` (stereo not shown) [I-48, N-(1,1-dioxido-2,3-dihydrothiophen-3-yl)-2-(1H-pyrazol-1-yl)-N-(pyridin-4-ylmethyl)-2-(3,3′,4′-trifluoro-[1,1′-biphenyl]-4-yl)acetamide], the IC50 was < 0.5 µM. Turning to `CNc1cc(CN(C(=O)Cc2ccc(-n3cccc3C)cc2F)C2C=CS(=O)(=O)C2)ccn1` (stereo not shown) [I-142, N-(1,1-dioxo-2,3-dihydro-1lambda6-thiophen-3-yl)-2-[2-fluoro-4-(2-methyl-1H-pyrrol-1-yl)phenyl]-N-{[2-(methylamino)pyridin-4-yl]methyl}acetamide], the IC50 was in the range of 0.5 to 5 µM.

Turning to `CC(C)(C)OC(=O)N1CC(C(=O)N(Cc2ccncc2)C2C=CS(=O)(=O)C2)c2ccc(-c3ccc(F)cc3)cc21` (stereo not shown) [I-569, tert-butyl 3-[(1,1-dioxo-2,3-dihydro-1lambda6-thiophen-3-yl)[(pyridin-4-yl)methyl]carbamoyl]-6-(4-fluorophenyl)-2,3-dihydro-1H-indole-1-carboxylate], the IC50 is > 50 µM. For `O=C(Cc1ccc(-n2cccc2)cc1)N(Cc1ccnc(OC(F)F)c1)C1C=CS(=O)(=O)C1` (stereo not shown) [I-215, N-{[2-(difluoromethoxy)pyridin-4-yl]methyl}-N-(1,1-dioxo-2,3-dihydro-1lambda6-thiophen-3-yl)-2-[4-(1H-pyrrol-1-yl)phenyl]acetamide] the value was 0.5 to 5 µM; for `CC(C(=O)N(Cc1ccncc1)C1C=CS(=O)(=O)C1)n1cc2ccccc2n1` (stereo not shown) [I-620, N-(1,1-dioxo-2,3-dihydro-1lambda6-thiophen-3-yl)-2-(2H-indazol-2-yl)-N-[(pyridin-4-yl)methyl]propanamide], > 50 µM. For `COC(C(=O)N(Cc1ccccc1)C1C=CS(=O)(=O)C1)c1ccc(-n2cccc2)cc1` (stereo not shown) [I-337, N-benzyl-N-(1,1-dioxo-2,3-dihydro-1lambda6-thiophen-3-yl)-2-methoxy-2-[4-(1H-pyrrol-1-yl)phenyl]acetamide] the value was 10 to 50 µM; for `CC(C)(O)c1cc(CN(C(=O)Cn2ncc(-c3cc(F)c(F)c(F)c3)c2Cl)C2C=CS(=O)(=O)C2)ccn1` (single isomer, unassigned) [I-773], < 0.5 µM; for `CC(C)(O)c1cc(CN(C(=O)Cn2ccc(-c3ccc(F)cc3)cc2=O)C2C=CS(=O)(=O)C2)ccn1` (single isomer, unassigned) [I-606], < 0.5 µM.
